The ED50 is the dose that gives a 50% effect, or the effect in half of the subjects.

Data set [1] concerns hypocretin cell ablated narcoleptic mice (prepororexin/ataxin-3 transgenic). Description: Sleep parameters (EEG/EMG polygraph) in narcoleptic mice. In kind it is in vivo. To be noted: for wake-promoting effects (magnitude): active (dark) period; for wakefulness (dose dependence): active period (dosed PO at ZT 14); for wake-promoting effects: resting period (dosed PO at ZT 2); for duration of continuous wakefulness: most narcoleptic mice. From the text:
(§1) The polygraph signal (EEG and EMG) was captured with SleepSign (Kissel Comtech), and the sleep stage was visually scored with 10 sec epoch for wakefulness, non-REM sleep and REM sleep. Scoring criteria are: Wakefulness is characterized by desynchronized low-amplitude, mixed frequency (>4 Hz) EEG and high EMG activity. Rhythmic alpha (8-9 Hz) wave (with high EMG activities) may also appear. Non-REM is characterized by synchronized, high-amplitude, low-frequency (0.25-4 Hz) with reduced EMG activity (compared to wakefulness). EEG activity in REM sleep is similar to that in wakefulness, with desynchronized, mixed frequency low amplitude waves. Rhythmic alpha (8-9 Hz) wave with reduced EMG activities may also appear. […] activity during REM sleep is reduced even further and in many cases, completely absent. Some muscle twitching may be apparent in the EMG trace during REM sleep.
(§2) Three drug doses of the test compound (50, 100 and 150 mg/kg PO) plus vehicle, was orally administered at ZT 2 (2 hours after light on) or ZT 14 (2 hours after light off), and the effects on sleep was monitored for 6 hours after the drug administration (the sleep data was collected for 30 hours after the drug injection, and are available for further analysis). The doses for modafinil were 50 and 200 mg/kg PO (plus vehicle), and modafinil was also administered at ZT 2 and ZT14.
(§3) If the polygraph signals of some mice were not sufficient to score the sleep stage with accuracy (especially bad EMG), data from these animals were excluded, and the minimum of 5 animals (except for the highest dose of the test compound in wild-type mice in dark period, n=4) were included for the data analysis and number of animals were indicated in the figures.
(§4) Effects of test compound and modafinil on the amount of wake, non-REM sleep, REM sleep (cumulative seconds), number of episodes for each sleep stage during 6 hours, mean wake/sleep-bout lengths (seconds) were analyzed in each animal and the mean of each parameter was calculated in each genotype. The effects of compounds on wake and sleep amounts are useful to evaluate the wake promoting potency, and the number of episodes for each sleep stage and the mean wake/sleep bout length are parameters for evaluating the sleep fragmentation. Amphetamine and modafinil, two main wake-promoting compounds currently used for the treatment of EDS associated with various etiologies (narcolepsy, idiopathic hypersomnia and secondary EDS), are known to increase wake time and prolong wake bout length in normal and EDS conditions.
(§5) A comparison of the effects between hypocretin deficient and wild-type mice is very useful in determining if the wake-promotion of the test compound is dependent on the availability of hypocretins, and if there is a possible change in the sensitivity of the receptive mechanisms of test compound in narcoleptic mice due to the hypocretin ligand deficiency.

For data set [2], the system named is littermate wild-type mice. Nature of the data set: Sleep parameters (EEG/EMG polygraph) in littermate wild-type mice. To be noted: for wake-promoting effects: resting period (dosed PO at ZT 2); for duration of continuous wakefulness: most wild-type mice. Format: in vivo.
From the text: as §1, §2, §3, §4, §5

Data set [3] relates to rats with sciatic nerve ligation. Description: Thermal hyperalgesia (hindpaw withdrawal latency, plantar tester) in rats with sciatic nerve ligation. Format: in vivo, Sprague-Dawley rats. Conditions: 30 mg/kg IP; for mean paw withdrawal latency: n = 6. The protocol: Young adult male Sprague-Dawley rats (CD(SD)IGS, 150-200 g) were initially anesthetized with isoflurane in O2 by a mask and the surgical procedure was performed according to the method described by Bennett and Xie (1988). Briefly, the right sciatic nerves were loosely tied using ligatures. All experiments were conducted in accordance with the guidelines of the International Association for the Study of Pain. The behavioral tests were conducted at least 14 days postoperatively.
The test compound was dissolved in saline and administered intraperitoneally at 30 mg/kg to animals in a volume of 3 mL/kg body weight.
To test for thermal hyperalgesia, the thermal response was determined by the hindpaw withdrawal latency, using a plantar tester (UGO BASILE, Italy), and a modified method of Hargreaves et al. (1988). Rats were allowed to acclimate within plastic enclosures on a clear glass plate maintained at room temperature. A radiant heat source (intensity 90) was controlled with a timer and focused onto the plantar surface of the rat right hind paw encompassing the glabrous skin. Paw withdrawal stopped both heat source and timer. A maximal cut-off 30 sec was used to prevent tissue damage. Rats were assessed for thermal hyperalgesia predose (0 hr) and at 1, 4 and 8 hours after 30 mg/kg test compound administration.
Data are expressed as mean±standard error of mean (SEM). The values of behavioral signs of neuropathic pain at various postoperative time points were compared with those of the preoperative control period by a repeated-measure One-way Analysis of Variance (followed by Dunnett's post-hoc test). P-values less than 0.05 were considered to be significant.

The next data set has as its system Male CD-1 mice. Description: Forced swimming test in mice. In kind it is in vivo. To be noted: for mean duration of immobility: mice. The protocol: (§6) Male CD-1 mice (16-24 g) and male Wistar rats (90-125 g) were utilized in these experiments. The test compound (10, 15 and 30 mg/kg) was dissolved in physiological saline (0.9%) and administered orally PO in a volume of 1 mL/100 g body weight.
(§7) Mice and rats were placed in glass cylinders (1000 ml beakers; height 14 cm, diameter 11.5 cm) and (4000 ml beakers; height 24.5 cm, diameter 18.0 cm) respectively, containing water (25 degrees Celsius) up to a height of 9.0 cm for mice and 19.0 for rats. […] Immobility was defined as lack of movement, such as floating in the water with little or no movement of hind legs. Duration of immobility was timed with a stopwatch and recorded. In some experiments, mice or rats were allowed to swim for 6 or 10 minutes, respectively, one day prior to the forced swimming experiment.
(§8) In the single dose test, mice or rats were given test compound or 0.9% NaCl and placed in glass cylinders 1 hour or 4 hours post-treatment, respectively. In the multiple dose experiments, mice were dosed twice a day for 3 days and given an additional dose on Day 4. In addition, the mice were placed in the glass cylinders containing water at 25 degrees Celsius and allowed to swim for six minutes on Day 3. Statistical evaluation was performed using a computer program based on probit analysis. Statistical significance was determined using Student's t-test at a P value of <0.05.

The subject of the next data set is male Wistar rats. Nature of the data set: Forced swimming test in rats. Format: in vivo. Conditions: 4 hours post-treatment. As to the method:
as §6, §7, §8

Where [4] appears, read: resting period, genotypes not distinguished.

Consider `NC(=O)C[S+]([O-])C(c1ccccc1)c1ccccc1` (stereo not drawn) [modafinil, reference compound], for which, in data set [1] (200 mg/kg (high dose), active period, narcoleptic mice), the wake amount entry was “did not bring the wake amount to that of the wild-type baseline levels”. In data set [1] (narcoleptic mice), the “wake-promoting effects (magnitude)” value was “much weaker”, the “wakefulness (dose dependence)” value is “dose-dependently increase” and the wake-promoting effects result is “modest”. Also, in data set [1] (modafinil 200 mg/kg PO, resting period, genotypes not distinguished), the “dose of test compound to which the wake promoting effect of modafinil roughly corresponds” value is listed as around 50 mg/kg. The REM sleep entry in data set [1] (setting [4]) is recorded as “did not strongly reduce REM sleep”. The wake-promoting effects result in data set [2] (wild-type mice) is recorded as “modest”.
Regarding `NC(=O)OC[C@H](N)Cc1ccccc1` [test compound, O-carbamoyl-(D)-phenylalaminol], the “mean paw withdrawal latency” value in data set [3] (0 hr (predose baseline)) stood at 5.17 s; in data set [3] (1 hr post-injection, P < 0.01 vs 0 hr), 6.33 s; in data set [3] (4 hr post-injection, P < 0.05 vs 0 hr), 6.06 s; in data set [3] (8 hr post-injection), 5.63 s. Besides, the “paw withdrawal latency to a thermal stimulus (in words)” value in data set [3] (vs pre-injection (0 hr) latency) is recorded as “significantly increased”. The “% of Antagonism” value in data set [3] (1 hr vs 0 hr latency) is 0.14**(22.3%; in data set [3] (4 hr vs 0 hr latency) it was 0.21*(17.2%); in data set [3] (8 hr vs 0 hr latency) it was 0.16(8.8%). Besides, the “duration of continuous wakefulness” value in data set [1] (50 mg/kg PO, resting period) is “up to 3 hours”; in data set [1] (100 mg/kg PO, resting period), at most 4 h; in data set [1] (150 mg/kg PO, resting period), at most 5 h; in data set [2] (50 mg/kg PO, resting period) it was “up to 3 hours”; in data set [2] (100 mg/kg PO, resting period), at most 4 h; in data set [2] (150 mg/kg PO, resting period), at most 5 h. Besides, the wake amounts result in data set [1] (100 mg/kg, active period, narcoleptic mice) is reported as “brought up to the levels of wild-type mice”; in data set [1] (150 mg/kg, active period, narcoleptic mice) it was “brought up to the levels of wild-type mice”. Also, the “Non-REM and REM sleep during the period of continuous wakefulness” value in data set [1] (50, 100, 150 mg/kg PO, resting period, narcoleptic mice) is “completely suppressed”; in data set [2] (50, 100, 150 mg/kg PO, resting period, wild-type mice) it was “completely suppressed”. The “sleep patterns of narcoleptic mice” value in data set [1] (50-150 mg/kg PO) is reported as “normalize”. Moreover, the bouts of wakefulness entry in data set [1] (50-150 mg/kg PO, narcoleptic mice) was “significantly increased”; in data set [2] (50-150 mg/kg PO, wild-type mice) it was “significantly increased”. Besides, the “wake-promoting effects (magnitude)” value in data set [1] (narcoleptic mice) is “much pronounced”; in data set [2] (active (dark) period, wild-type mice, high baseline wakefulness), “only small effects”. The “wakefulness (dose dependence)” value in data set [1] (narcoleptic mice) is recorded as “dose-dependently increased”; in data set [2] (active period (dosed PO at ZT 14), wild-type mice), “dose-dependently increased”. Moreover, the “amounts of non-REM and REM sleep” value in data set [1] (active period, narcoleptic mice) is recorded as “brought down to the levels of wild-type mice”. Also, the “sleep that occurred after the prolonged wakefulness” value in data set [1] (polygraphic assessments, resting period, genotypes not distinguished) is reported as “normal”. Also, the wake-promoting effects entry in data set [1] (narcoleptic mice) and in data set [2] (wild-type mice) was “Very potent” throughout. Moreover, the REM sleep entry in data set [1] (setting [4]) is “potently reduced”. Also, in data set [1] (resting period, wild-type and narcoleptic mice not distinguished), the “EEG patterns after administration” value is reported as “no abnormal EEG patterns”. Besides, the median effective dose (ED50) in the data set on Male CD-1 mice (Mus musculus, multiple dosing PO, mice (twice a day for 3 days plus a dose on Day 4), read-out: ED50 (reduction in mean immobility time)) was 5.5 mg/kg. In addition, the “mean duration of immobility” value is 63 s in the data set with Male CD-1 mice (multiple dosing 3 mg/kg PO, control 85 sec); 73 s in the data set on Male CD-1 mice (multiple dosing 5 mg/kg PO, control 136 sec, significant); 39 s in the data set with Male CD-1 mice (multiple dosing 8 mg/kg PO, control 114 sec, significant); 101 s with Male CD-1 mice (single dose 10 mg/kg PO, control 131 sec); 80 s in the data set with Male CD-1 mice (single dose 15 mg/kg PO, control 154 sec, significant); 30 s in the data set with Male CD-1 mice (single dose 30 mg/kg PO, control 132 sec, significant). The “mean duration of immobility” value in the data set on male Wistar rats (10 mg/kg PO, control 74 sec, not statistically significant) worked out at 62 s; in the data set with male Wistar rats (15 mg/kg PO, control 65 sec, not statistically significant), 39 s; with male Wistar rats (30 mg/kg PO, control 38 sec, significant), 9 s.

(Values after US9688620B2, “Methods for treating fibromyalgia syndrome” (SK Biopharmaceuticals Co., Ltd., priority 2009, dated 2017).)
